Measured values reported in ChEMBL document CHEMBL4483862, “Open-source discovery of chemical leads for next-generation chemoprotective antimalarials” (2018).

System: Plasmodium berghei
Assay: Luciferase/luciferin-expressing antifolate-resistant parasites were used to infect a culture of HepG2 cells that were pre-incubated with compounds. Infected hepatocytes emit light due to the luciferase reaction. Assay results are presented as the percent inhibition of light emission compared to control. […]
Format: functional
Details: sporozoite; for IC50: read-out: LUCIFERASE INFECTION ASSAY - IC50; for IC90: read-out: LUCIFERASE INFECTION ASSAY - IC90

Work on `CSc1ccc(Cl)c(C(=O)OCC(=O)N2CCN(C(=O)c3ccco3)CC2)c1` yielded an IC50 of over 10 µM and an IC90 of over 10 µM.
In the case of `Cn1c(N)c(Sc2ccccc2[N+](=O)[O-])c(=O)n(C)c1=O`, the IC50 is reported as over 10 µM and the IC90 is reported as over 10 µM.
In the case of `FC(F)Oc1ccc(-c2cs/c(=N\c3cccnc3)n2CC2CCCO2)cc1` (centres undefined), the IC50 is reported as 4.16 µM and the IC90 is reported as over 10 µM.
Work on `O=C1S/C(=C\c2ccccc2)C(=O)N1CCn1cnnn1` yielded an IC50 of over 10 µM and an IC90 of over 10 µM.
Molecule `Cc1nn(-c2ccccc2)c2c1C(c1c[nH]c3ccccc13)N1C(=N2)C(N2CCN(c3ccc(F)cc3)CC2)=Nc2ccccc21` (centres undefined) has an IC50 of over 10 µM and an IC90 of over 10 µM.
`CCCCNC(=S)NN=C(c1ccccc1)c1ccccc1` gave an IC50 of over 10 µM and an IC90 of over 10 µM.
For `CCN(CC)S(=O)(=O)c1ccc(-c2ccc(C3NC(N)=Nc4nc5ccccc5n43)o2)cc1` (centres undefined), the IC50 was over 10 µM and the IC90 was over 10 µM.
Molecule `CCC/C(=N\n1c(-c2ccc(-c3ccccc3)cc2)cs/c1=N/c1c(C)n(C)n(-c2ccccc2)c1=O)c1ccccc1` has an IC50 of over 10 µM and an IC90 of over 10 µM.
With `O=C(Nc1ccc(Cl)cc1C(F)(F)F)C(OC(=O)C(c1ccccc1)c1ccccc1)c1ccccc1` (centres undefined) the IC50 was over 10 µM and the IC90 was over 10 µM.
Work on `COCC/N=c1\scc(-c2ccc(OC(F)F)cc2)n1/N=C/c1ccccc1Cl` yielded an IC50 of over 10 µM and an IC90 of over 10 µM.
For `COc1ccccc1Oc1ccc(S(=O)(=O)N(c2cccnc2)S(=O)(=O)c2ccc(Oc3ccccc3OC)cc2)cc1`, the IC50 was over 10 µM and the IC90 was over 10 µM.
In the case of `CN1/C(=C\C(=O)COC(=O)c2cc3ccccc3cc2O)C(C)(C)c2ccccc21`, the IC50 is reported as over 10 µM and the IC90 is reported as over 10 µM.
For `Cn1ncc(C(C#N)c2nc3ccccc3s2)c(Cl)c1=O` (centres undefined), the IC50 was over 10 µM and the IC90 was over 10 µM.
Molecule `CC(C)(C)C1CCc2nc3ccccc3c(C(=O)OCC(=O)c3ccc(Cl)s3)c2C1` (centres undefined) has an IC50 of over 10 µM and an IC90 of over 10 µM.
With `Cc1ccc(N2C(=O)/C(=C\c3ccc4c(c3)OCO4)N=C2SCC(=O)NCC2CCCO2)cc1` (centres undefined) the IC50 was over 10 µM and the IC90 was over 10 µM.
`C=CC/N=c1\scc(-c2ccc(Br)s2)n1/N=C/c1ccccn1` was tested, and the IC50 was 3.59 µM and the IC90 was 4.27 µM.
`CC1Cc2ccccc2N1C(=O)COC(=O)c1ccc([N+](=O)[O-])cc1` (centres undefined) was tested, and the IC50 was over 10 µM and the IC90 was over 10 µM.
For `CCN(c1ccccc1)S(=O)(=O)c1ccc(C(=O)NC2CCCc3ccccc32)cc1` (centres undefined), the IC50 was over 10 µM and the IC90 was over 10 µM.
Work on `S=C(NCCc1ccc(Cl)cc1Cl)NC1CC2CCC1C2` (centres undefined) yielded an IC50 of over 10 µM and an IC90 of over 10 µM.
In the case of `C/C(=N\NC(=O)c1ccc(COc2c(Br)cc(C)cc2Br)cc1)c1ccc(O)cc1O`, the IC50 is reported as 1.12 µM and the IC90 is reported as 1.28 µM.
With `Cc1ccc(S(=O)(=O)Nc2ccc(C(=O)/C=C/c3ccc(C(C)(C)C)cc3)cc2)cc1` the IC50 was over 10 µM and the IC90 was over 10 µM.
Work on `O=C(COC(=O)Cc1ccc(Cl)c(Cl)c1)Nc1ccc(OCc2ccccc2)cc1` yielded an IC50 of over 10 µM and an IC90 of over 10 µM.
For `CC(C)N(C(=O)COn1nnc2ccc(S(=O)(=O)N(C)C)cc21)C(C)C`, the IC50 was over 10 µM and the IC90 was over 10 µM.
In the case of `CCC(C)c1ccc(NC(=O)CN(Cc2ccccc2)S(=O)(=O)c2ccc(C)c(C)c2)cc1` (centres undefined), the IC50 is reported as over 10 µM and the IC90 is reported as over 10 µM.
`CC1CCCC(NC(=O)CNc2cc(C(F)(F)F)ccc2Oc2ccc(Br)cc2)C1C` (centres undefined) showed an IC50 of over 10 µM and an IC90 of over 10 µM.
Molecule `Clc1ccccc1OCc1nnc(SCc2csc(-c3ccccc3)n2)o1` has an IC50 of over 10 µM and an IC90 of over 10 µM.
In the case of `FC(F)Sc1ccc(NC(=S)NC2CCCc3ccccc32)cc1` (centres undefined), the IC50 is reported as over 10 µM and the IC90 is reported as over 10 µM.
`CCCCCC(/C=N/NC(=O)c1ccccc1O)=C\c1ccccc1` was tested, and the IC50 was over 10 µM and the IC90 was over 10 µM.
`COCC/N=c1\scc(-c2ccc(OC(F)F)cc2)n1/N=C/c1ccccc1F` showed an IC50 of over 10 µM and an IC90 of over 10 µM.
In the case of `C=C(C)C/N=c1\scc(-c2ccccc2F)n1/N=C1\CCCCc2ccccc21`, the IC50 is reported as over 10 µM and the IC90 is reported as over 10 µM.
In the case of `CCCCCCC(/C=N/NC(=O)c1ccccc1O)=C\c1ccccc1`, the IC50 is reported as over 10 µM and the IC90 is reported as over 10 µM.
`COc1cc(/C=C/C(=O)c2ccc(Cl)c([N+](=O)[O-])c2)ccc1OC(F)F` showed an IC50 of over 10 µM and an IC90 of over 10 µM.
